Reference: the supplement of paper PMC10307832

Columns and labels:
Test in all cases: relative viability (nuclei count vs DMSO), 5 days (fraction); higher = more cells survive
Carboplatin + Pemetrexed = compound: C1CC(C1)(C(=O)O)C(=O)O.[NH2-].[NH2-].[Pt+2] [Carboplatin] + Nc1nc2[nH]cc(CCc3ccc(C(=O)N[C@@H](CCC(=O)O)C(=O)O)cc3)c2c(=O)[nH]1 [Pemetrexed] (partner 0.2 µM)
In short: (§1)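 Lung cancer cell lines in 1536-well plates got either a single drug or a fixed anchor-drug dose together with five library-drug doses (not always all listed) in √10 steps, by pin tool, on the day after seeding. Nuclei were counted after 5 days, and relative viability is the treated-to-vehicle ratio of nuclei counts. Values are medians of duplicate plates.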

Carboplatin + Vorinostat = compound: C1CC(C1)(C(=O)O)C(=O)O.[NH2-].[NH2-].[Pt+2] [Carboplatin] + O=C(CCCCCCC(=O)Nc1ccccc1)NO [Vorinostat] (partner 1 µM)
In short: as §1

MLN4924 + Olaparib = compound: NS(=O)(=O)OC[C@@H]1C[C@@H](n2ccc3c(N[C@H]4CCc5ccccc54)ncnc32)C[C@@H]1O [MLN4924] + O=C(c1cc(Cc2n[nH]c(=O)c3ccccc23)ccc1F)N1CCN(C(=O)C2CC2)CC1 [Olaparib] (partner 8 µM)
In short: as §1

MLN4924 + Tozasertib = compound: NS(=O)(=O)OC[C@@H]1C[C@@H](n2ccc3c(N[C@H]4CCc5ccccc54)ncnc32)C[C@@H]1O [MLN4924] + Cc1cc(Nc2cc(N3CCN(C)CC3)nc(Sc3ccc(NC(=O)C4CC4)cc3)n2)n[nH]1 [Tozasertib] (partner 0.1 µM)
In short: as §1

Cell Line	relative viability (Carboplatin + Pemetrexed; first compound 0.08 µM)	relative viability (Carboplatin + Pemetrexed; first compound 0.253 µM)	relative viability (Carboplatin + Pemetrexed; first compound 0.8 µM)	relative viability (Carboplatin + Pemetrexed; first compound 2.53 µM)	relative viability (Carboplatin + Pemetrexed; first compound 8 µM)	relative viability (Carboplatin + Vorinostat; first compound 0.08 µM)	relative viability (Carboplatin + Vorinostat; first compound 0.253 µM)	relative viability (Carboplatin + Vorinostat; first compound 0.8 µM)	relative viability (Carboplatin + Vorinostat; first compound 2.53 µM)	relative viability (Carboplatin + Vorinostat; first compound 8 µM)	relative viability (MLN4924 + Olaparib; first compound 0.04 µM)	relative viability (MLN4924 + Olaparib; first compound 0.1265 µM)	relative viability (MLN4924 + Olaparib; first compound 0.4 µM)	relative viability (MLN4924 + Olaparib; first compound 1.265 µM)	relative viability (MLN4924 + Olaparib; first compound 4 µM)	relative viability (MLN4924 + Tozasertib; first compound 0.04 µM)	relative viability (MLN4924 + Tozasertib; first compound 0.1265 µM)	relative viability (MLN4924 + Tozasertib; first compound 0.4 µM)	relative viability (MLN4924 + Tozasertib; first compound 1.265 µM)	relative viability (MLN4924 + Tozasertib; first compound 4 µM)
COR-L 105	1.13	1.27	1.18	0.854	0.615	0.817	0.855	0.92	0.739	0.48	0.5	0.568	0.427	0.278	0.335	0.343	0.331	0.323	0.247	0.241
NCI-H2170	0.246	0.252	0.265	0.286	0.236	0.94	0.811	0.89	0.737	0.413	0.413	0.229	0.195	0.148	0.113	0.722	0.407	0.325	0.151	0.155
EKVX	0.38	0.342	0.402	0.296	0.329	0.746	0.659	0.682	0.676	0.693	0.801	0.588	0.531	0.206	0.169	0.408	0.457	0.299	0.155	0.127
NCI-H1437	0.33	0.28	0.301	0.307	0.298	0.803	0.869	0.728	0.808	0.598	0.582	0.499	0.409	0.253	0.153	0.298	0.254	0.176	0.195	0.133
PC-3 [JPC-3]	1.28	0.986	1.02	0.939	0.889	1.14	0.799	0.9	0.765	0.685	1.16	1.05	0.298	0.436	0.452	0.903	0.785	0.652	0.366	0.275
LK-2	0.336	0.314	0.273	0.233	0.289	0.154	0.299	0.273	0.306	0.31	0.4	0.312	0.234	0.151	0.137	0.175	0.182	0.189	0.209	0.174
NCI-H1651	0.702	0.61	0.552	0.534	0.56	0.617	0.556	0.588	0.524	0.483	0.176	0.182	0.176	0.138	0.0847	0.759	0.782	0.524	0.321	0.133
